What was measured:
[1] = testosterone levels with Androderm transdermal patch; details: human, in vivo, other: transdermal patch
From the text: When androgens such as testosterone bind to osteoblast receptors, the osteoblast is stimulated to form new bone (i.e. move calcium into bone). […] Accordingly, administration of androgens such as testosterone, or administration of endocrine hormones that upregulate indigenous production of androgens (e.g. in males, luteinizing hormone, gonadotropin/luteinizing hormone releasing hormone), can be used to reduce extracellular calcium levels by moving calcium back into bone. Testosterone USP is natural testosterone that has been approved by the United States Pharmacopoeia and is available as a bulk chemical. Testosterone is well-absorbed from transdermal (topical) creams and gels. Dosage forms also include sublingual drops, buccal or sublingual troches or tablet triturates. […] In the form known as Testosterone Cypionate, testosterone can be administered by intramuscular injection every 1-3 weeks. WatsonPharma's Androderm transdermal 2.5 mg or 5 mg testosterone patch provides a more convenient way to administer testosterone, and provides the ability to administer the testosterone over a desired time frame much more precisely (as will be discussed further in representative examples). Androderm patches can ramp up testosterone levels quickly (e.g. 349 ng/dl within 3 hours, 528 ng/dl within 6 hours, when applied to the back) and can be used for up to 24 hours. […]

[2] = system: serum calcium; details: injections of 4-8 IU/kg (IM or SubQ), most patients; cited from earlier work
[3] = system: blood calcium levels; details: more potent than human calcitonin; cited from earlier work
[4] = system: tryptophan hydroxylase (TPH); details: estrogen treated monkey; cited from earlier work
[5] = system: serum calcium; details: 7.5 mg/kg, 2 h infusion x3 days; cited from earlier work
[6] = serum estrogen levels and half life with estradiol transdermal patch in postmenopausal women (Ginsburg et al.); format: in vivo; details: female, human, other: transdermal patch, 0.1 mg, after removal of patch, worked out from mean half life, read-out: terminal half life (converted)
From the text: Exogenous estrogen can be used to inhibit osteoclast activity and bone resorption by the “triple whammy” previously disclosed, inhibiting osteoclast activity by binding to osteoblasts and 1) increasing their output of OPG and 2) suppressing their RANKL production and 3) prolonging the lives of osteoblasts while simultaneously promoting osteoclast apoptosis. […] The dose is low enough and for a short enough period of time that it should not materially interfere with any of the menstrual processes. Alternatively, the patch may also be cut in half to obtain a half dose (0.05 ng/ml) cushion factor. Estrogen is available in oral, injectable, and patch forms from numerous suppliers and include Estrace, Cenestin, Enjuvia, Femtrace, Gynodiol, Menest etc. . . .
SERM/Estradiol: If the patient is on birth control, which is basically 3 weeks of estrogen followed by 1 week of sugar pills, the SERM raloxifene could be substituted for the sugar pills. Alternatively, low levels of estrogen could be substituted for one or more of the sugar pills, with the goal of keeping the serum levels around 0.1 ng/ml, without the sharp transition drop, and without the potential for interfering with progression of menstruation. Alternatively, an estrogen patch may be used. […]

[7] = system: patients with PMS; details: double blind study; cited from earlier work

## C[C@]12CC[C@H]3[C@@H](CCC4=CC(=O)CC[C@@]43C)[C@@H]1CC[C@@H]2O [testosterone]
[1]
  time to return to baseline levels after removal of the patch: 3 to 4 h

## Calcitonin
[2]
  drop in serum calcium levels: 1 to 2 mg/dL

## CC(C)C[C@H](NC(=O)[C@H](CCCCN)NC(=O)CNC(=O)[C@H](CC(C)C)NC(=O)[C@@H](NC(=O)[C@@H]1CSSC[C@H](N)C(=O)N[C@@H](CO)C(=O)N[C@@H](CC(N)=O)C(=O)N[C@@H](CC(C)C)C(=O)N[C@@H](CO)C(=O)N[C@@H]([C@@H](C)O)C(=O)N1)C(C)C)C(=O)N[C@@H](CO)C(=O)N[C@@H](CCC(N)=O)C(=O)N[C@@H](CCC(=O)O)C(=O)N[C@@H](CC(C)C)C(=O)N[C@@H](Cc1c[nH]cn1)C(=O)N[C@@H](CCCCN)C(=O)N[C@@H](CC(C)C)C(=O)N[C@@H](CCC(N)=O)C(=O)N[C@H](C(=O)N[C@@H](Cc1ccc(O)cc1)C(=O)N1CCC[C@H]1C(=O)N[C@@H](CCCNC(=N)N)C(=O)N[C@H](C(=O)N[C@@H](CC(N)=O)C(=O)N[C@H](C(=O)NCC(=O)N[C@@H](CO)C(=O)NCC(=O)N[C@H](C(=O)N1CCC[C@H]1C(N)=O)[C@@H](C)O)[C@@H](C)O)[C@@H](C)O)[C@@H](C)O [salmon calcitonin]
[3]
  potency relative to human calcitonin: 40-50 times

## estrogen
[4]
  increase in tryptophan hydroxylase (TPH): nine-fold

## CC(O)(P(=O)(O)O)P(=O)(O)O [etidronate disodium]
[5]
  duration of efficacy: more than a week

## C[C@]12CC[C@@H]3c4ccc(O)cc4CC[C@H]3[C@@H]1CC[C@@H]2O [estradiol]
[6]
  half-life: ~9 h

## N[C@@H](Cc1cc(I)c(Oc2cc(I)c(O)c(I)c2)c(I)c1)C(=O)O [levothyroxine]
[7]
  benefit over the placebo: did not show any benefit over the placebo
